{"source": "patent US12178815B2", "about": "“Regimens for treating HIV infections and aids” (priority 2017, dated 2024)", "key": {"[1]": {"tested_on": "virus with mixture at integrase codon 269 (R269R/G)", "experiment": "Susceptibility of virus from subject with protocol-defined virologic failure (integrase R269R/G)", "parameters": "species or system HIV-1", "conditions": "eight-week group subject"}, "[2]": {"experiment": "LATTE-2 plasma pharmacokinetics (trough concentrations)", "assay_type": "in vivo, human", "conditions": "for C0 relative to in vitro PA-IC90 / C0 at 48 week: Week 48; for C0 at 48 week: human, plasma, im", "experimental": "Pharmacokinetic plasma concentrations following long-acting cabotegravir+rilpivirine administration are summarized using evaluable data that met sample collection window criteria, excluding samples affected by dosing errors (wrong dose) or oral bridging. Sampling windows for intramuscular dosing were set relative to the previous injection as follows: ±0.5 hours for two-hour postdose samples; ±one day for one-week postinjection visits; ±two days for predose samples in the four-week group, Weeks 4 and 8 cabotegravir samples in the eight-week group, and midcycle concentrations four weeks postinjection in the eight-week group; and ±four days for predose samples in the eight-week group (except for Weeks 4 and 8 cabotegravir samples, as described earlier)."}, "wild-type HIV-1": {"tested_on": "wild-type HIV-1", "experiment": "in vitro protein-adjusted 90% inhibitory concentration (PA-IC90)", "assay_type": "cell-based", "conditions": "against wild-type HIV-1"}, "[3]": {"tested_on": "virus with reverse transcriptase mutations K103N, E138G, and K238T and integrase mutation Q148R", "experiment": "Phenotypic resistance of virus from subject with protocol-defined virologic failure", "parameters": "species or system HIV-1", "conditions": "eight-week group subject, RT K103N"}}, "note": "Where two headings read alike, the source gives them in different places.", "data": [{"molecule": "C[C@H]1CO[C@@H]2Cn3cc(C(=O)NCc4ccc(F)cc4F)c(=O)c(O)c3C(=O)N12", "note": "[cabotegravir, (3S,11aR)—N-[(2,4-difluorophenyl)methyl]-2,3,5,7,11,11a-hexahydro-6-hydroxy-3-methyl-5,7-dioxo-oxazolo[3,2-a]pyrido[1,2-d] pyrazine-8-carboxamide]", "values": [{"measurement": "Effect of emergent integrase R269R/G mixture on susceptibility", "setting": "[1]", "value": "did not decrease"}, {"measurement": "C0 relative to in vitro PA-IC90", "setting": "[2]; eight-week IM LA", "value": 9, "unit": "fold"}, {"measurement": "C0 relative to in vitro PA-IC90", "setting": "[2]; four-week IM LA", "value": 16, "unit": "fold"}, {"measurement": "C0 relative to in vitro PA-IC90", "setting": "[2]; oral 30 mg once daily", "value": 27, "unit": "fold"}, {"measurement": "C0 at 48 week", "setting": "[2]; eight-week IM LA, read-out: geometric mean trough concentration (C0)", "value": 1460, "unit": "ng/mL"}, {"measurement": "C0 at 48 week", "setting": "[2]; four-week IM LA, read-out: geometric mean trough concentration (C0)", "value": 2580, "unit": "ng/mL"}, {"measurement": "IC90", "setting": "wild-type HIV-1; Human immunodeficiency virus 1, read-out: in vitro protein-adjusted 90% inhibitory concentration (PA-IC90)", "value": 0.166, "unit": "µg/mL"}, {"measurement": "Phenotypic resistance/sensitivity of subject's virus", "setting": "[3]", "value": "phenotypic resistance"}]}, {"molecule": "C[C@@H]1CCO[C@H]2Cn3cc(C(=O)NCc4ccc(F)cc4F)c(=O)c(O)c3C(=O)N12", "note": "[dolutegravir]", "values": [{"measurement": "Phenotypic resistance/sensitivity of subject's virus", "setting": "[3]", "value": "sensitive"}]}, {"molecule": "Cc1ccnc2c1NC(=O)c1cccnc1N2C1CC1", "note": "[nevirapine]", "values": [{"measurement": "Phenotypic resistance/sensitivity of subject's virus", "setting": "[3]", "value": "phenotypic resistance"}]}, {"molecule": "Cc1nnc(C(=O)NC(C)(C)c2nc(C(=O)NCc3ccc(F)cc3)c(O)c(=O)n2C)o1", "note": "[raltegravir]", "values": [{"measurement": "Phenotypic resistance/sensitivity of subject's virus", "setting": "[3]", "value": "phenotypic resistance"}]}, {"molecule": "COc1cc2c(cc1Cc1cccc(Cl)c1F)c(=O)c(C(=O)O)cn2[C@H](CO)C(C)C", "note": "[elvitegravir]", "values": [{"measurement": "Phenotypic resistance/sensitivity of subject's virus", "setting": "[3]", "value": "phenotypic resistance"}]}, {"molecule": "O=C1Nc2ccc(Cl)cc2[C@@](C#CC2CC2)(C(F)(F)F)O1", "note": "[efavirenz]", "values": [{"measurement": "Phenotypic resistance/sensitivity of subject's virus", "setting": "[3]", "value": "phenotypic resistance"}]}, {"molecule": "Cc1cc(/C=C/C#N)cc(C)c1Nc1ccnc(Nc2ccc(C#N)cc2)n1", "note": "[rilpivirine]", "values": [{"measurement": "C0 relative to in vitro PA-IC90", "setting": "[2]; eight-week IM LA", "value": 5, "unit": "fold"}, {"measurement": "C0 relative to in vitro PA-IC90", "setting": "[2]; four-week IM LA", "value": 8, "unit": "fold"}, {"measurement": "C0 at 48 week", "setting": "[2]; four-week IM LA, read-out: geometric mean C0", "value": 94.6, "unit": "ng/mL"}, {"measurement": "Accumulation on repeated IM dosing", "setting": "[2]; through 48 weeks of dosing, both IM arms", "value": "Accumulation of rilpivirine was observed"}, {"measurement": "IC90", "setting": "wild-type HIV-1; Human immunodeficiency virus 1, read-out: in vitro PA-IC90", "value": 0.012, "unit": "µg/mL"}, {"measurement": "Phenotypic resistance/sensitivity of subject's virus", "setting": "[3]", "value": "phenotypic resistance"}]}]}
